In paper PMC6937156, “The nature of the ligand’s side chain interacting with the S1'-subsite of metallocarboxypeptidase T (from Thermoactinomyces vulgaris) determines the geometry of the tetrahedral transition complex” (PLoS ONE, 2019):

Molecular target: T1, carboxypeptidase T (CPT) (Thermoactinomyces vulgaris, UniProt P29068)
T1 construct: mature enzyme; one molecule in asymmetric unit
Experiment: inhibition of tripeptide hydrolysis, integral kinetic curves at […] nm
Assay type: biochemical

Structure (SMILES) | Ki
N=C(N)NCCC[C@H](NS(N)(=O)=O)C(=O)O [SArg, N-sulfamoyl-L-arginine] | 340 µM
NS(=O)(=O)N[C@@H](CCC(=O)O)C(=O)O [SGlu, N-(aminosulfonyl)-L-glutamic acid] | 3090 µM
CC(C)C[C@H](NS(N)(=O)=O)C(=O)O [SLeu, N-(aminosulfonyl)-L-leucine] | 8.94 µM
NS(=O)(=O)N[C@@H](Cc1ccccc1)C(=O)O [SPhe, N-sulfamoyl-L-phenylalanine] | 35.1 µM
